Experimental data taken from patent US20050256178A1, “Novel nutraceutical compositions comprising boitin” (priority 2002, published 2005).

Legend:
[1] = tested on: catalytic subunit of glucose-6-phosphatase; assay: Affymetrix GeneChip expression of glucose-6-phosphatase catalytic subunit in H-4-II-E rat liver cells; format: cell-based; conditions: H-4-II-E cells, 24 h; 50 μM EGCG, 1 μM biotin, 50 μM cysteamin; Affymetrix Id 1370725_a_at; triplicate
Protocol: The Affymetrix GeneChip® high-density oligonucleotide microarray approach was chosen to determine the global gene expression in H-4-II-E rat liver cells.
H-4-II-E rat liver cells were obtained from the American Type Culture Collection (ATCC) and cultured in Medium 199 (Invitrogen) Basel, Switzerland) supplemented with 10% fetal calf serum in a humidified 5% CO2 atmosphere at 37° C. Cells were regularly passaged at subconfluence and used at low passage numbers. For the final assays, cells were trypsinized, seeded at a density of 1×10^6 cells/well in 6-well cell culture plates and maintained in Medium 199 & 0.1% BSA (Invitrogen) for another 6 h before compounds were applied. EGCG was applied in DMSO; cysteamin was first solved in 1M HCl and then applied to the stimulation medium, biotin was directly dissolved into the medium. After 24 h treatment, total RNA was harvested.
A total number of 24 samples were prepared following the Affymetrix GeneChip® array protocol (Affymetrix, Santa Clara, Calif., USA). Briefly, total cellular RNA was extracted by using Qiagen RNeasy Mini Kit with an on-column RNase-free DNase I digest (Qiagen, Basel, Switzerland). A T7-(T)24 primer (5′-[sequence] [sequence]-(dT)24-3′) was annealed to 10 kg of total RNA and Superscript II reverse transcriptase (400 U) was utilized to synthesize first-strand cDNA in the presence of DTT, dNTPs and 1× reaction buffer. Second strand synthesis was performed by adding E. coli DNA polymerase I (40 U), E. coli ligase (10 U) and RNase H (2 U) in a final reaction containing 1× second strand buffer in the presence of dNTPs. Finally strands were blunted using T4 DNA polymerase (10 U) (Superscript™ Microarray Customized Kit, Invitrogen, Basel, CH). cDNA was purified by phenol/chloroform extraction and subsequently in vitro transcription was carried out for 3 h using T7 RNA polymerase (Megascript™ T7 Kit, Ambion, Tex., USA), incorporating bio-16-UTPs and bio-11-CTPs (Roche Molecular Biochemicals, Penzberg, Germany). […]

[2] = tested on: pre-diabetic Otsuka Long-Evans Tokushima fatty (OLETF) rats (NIDDM); assay: Oral glucose tolerance in pre-diabetic OLETF rats; format: in vivo; conditions: biotin orally (2-16 mg/day) or parentally (0.1 mg/day)
Text: (§1) Biotin: Biotin supplementation enhances hepatic glucose clearance which results in a decrease of circulating glucose concentration and induces decrease in the hepatic PEPCK activity. PEPCK is a rate-limiting cytosolic enzyme that catalyses the first committed step of hepatic gluconeogenesis. Decrease of hepatic PEPCK activity results in a decrease in liver glucose output.

[3] = tested on: diabetic KK mice (NIDDM model); assay: Oral glucose tolerance in diabetic KK mice; format: in vivo; conditions: biotin orally (2-16 mg/day) or parentally (0.1 mg/day)
Text: as §1

C57BLKS/J db/db mice = assay: Glucose removal after oral glucose load (OGTT) in db/db mice, 5-week study; format: in vivo; conditions: for Glucose removal rate (% glucose decrease of control) 90 min / Glucose removal rate (% glucose decrease of control) 120 min / Glucose removal rate (% glucose decrease of control) 150 min / Glucose removal rate (% glucose decrease of control) 180 min: OGTT (1 g glucose/kg) in db/db mice after 4 weeks feed-ad-mix, biotin 8 mg/kg BW/day, phytanic acid 300 mg/kg BW/day; for Blood glucose levels during the glucose load compared to the control group: db/db mice, glucose load 1 g/kg, 90-180 min, biotin 8, phytanic acid 300 mg/kg BW/day
Protocol: The efficacy of the combination of biotin and phytanic acid as well as of both compounds alone on glucose removal was tested in a 5-week study in C57BLKS/J db/db mice (n=7−8/group). This model of late type 2 diabetes with severe hyperglycemia is widely used to determine the efficacy of anti-diabetic compounds.
Male db/db mice were obtained from Jackson Laboratory (Bar Harbor, Me., USA). Adult mice aged 8 weeks were used in the experiment. Mice were housed individually in plastic cages with bedding and allowed free access to standard rodent food and tap water. The animal rooms were controlled for temperature (24° C.), humidity (55%), and light (12-h light-dark cycle). The animals were randomized into four groups. Biotin and phytanic acid were administered as feed-ad-mix. Corn oil (1% of diet) served as a carrier substance for biotin and phytanic acid as well as a placebo when used alone. Group 1 received placebo, group 2 received biotin at a dose of 8 mg/kg body weight (BW)/day, group 3 received phytanic acid at a dose of 300 mg/kg BW/day, and group 4 received the combination of biotin and phytanic acid at a doses of 8 and 300 mg/kg BW/day, respectively. After 4 weeks of treatment glucose removal was assessed 90, 120, 150 and 180 minutes after an oral glucose load (1 g/kg body weight). Blood samples were obtained 90, 120, 150, 180 minutes from the tail vein for determination of blood glucose levels. Blood glucose was measured by a glucose analyzer (Glucotrend Premium, Roche Diagnostics, Rotkreuz, Switzerland). All data are expressed as means for animals in each diet group. Statistical significance of the mean differences between dietary groups was tested by one-way analysis of variance (ANOVA). If significant differences were found, the Dunnett's test for multiple comparison was used to compare each group to the control group. P values less than 0.05 were considered significant. All analyses were performed with Statistica (ver. 5.5A, StatSoft, Inc).
GRR is defined as the speed at which glucose is removed from blood and directed to the peripheral tissues. At 90, 120, 150 and 180 minutes after application of the glucose load blood glucose levels in animals treated with the combination of biotin and phytanic acid decreased to a greater extent than excepted by the decrease due to monotherapy with biotin or phytanic acid. […] To evaluate the GRR the glucose levels were expressed as the percent change of glucose levels for each group compared to the control group. The expected GRR is defined as the sum of the GRR exerted by biotin and by phytanic acid when used as a monotherapy.

[4] = tested on: streptozotocin-diabetic rats (IDDM); assay: Oral glucose tolerance in streptozotocin-diabetic rats; format: in vivo; conditions: biotin orally (2-16 mg/day) or parentally (0.1 mg/day)
Text: as §1

[5] = tested on: type 1 and type 2 diabetic patients; assay: Preliminary human studies, fasting blood glucose after biotin supplementation; format: in vivo
Text: as §1

rat primary hepatocytes = assay: Glucose uptake in rat primary hepatocytes; format: cell-based; conditions: about 10 to about 100 μM
Text: (§2) Therefore, intake of phytanic acid helps to improve insulin sensitivity and may act as a preventative measure against type 2 diabetes and Syndrome X through activation of PPARs and RXR.

pre-adipocyte cells = assay: Differentiation of pre-adipocyte cells into mature adipocytes; format: cell-based; conditions: compared to the specific PPAR-γ agonist ciglitazone
Text: as §2

| Structure (SMILES) | MeanAvgDiff (Mean Relative Expression) of glucose-6-phosphatase catalytic subunit [1] | Oral glucose tolerance [2] | Oral glucose tolerance [3] | Glucose removal rate (% glucose decrease of control) 90 min (C57BLKS/J db/db mice) [%] | Glucose removal rate (% glucose decrease of control) 120 min (C57BLKS/J db/db mice) [%] | Glucose removal rate (% glucose decrease of control) 150 min (C57BLKS/J db/db mice) [%] | Glucose removal rate (% glucose decrease of control) 180 min (C57BLKS/J db/db mice) [%] | Blood glucose levels during the glucose load compared to the control group (C57BLKS/J db/db mice) | Oral glucose tolerance [4] | Fasting blood glucose levels [5] | Uptake of glucose (rat primary hepatocytes) | Effects on differentiation of pre-adipocyte cells into mature adipocytes (pre-adipocyte cells) |
| --- | --- | --- | --- | --- | --- | --- | --- | --- | --- | --- | --- | --- |
| O=C(O)CCCC[C@@H]1SC[C@@H]2NC(=O)N[C@@H]21 [Biotin] | 516.66 | improved oral glucose tolerance | improved oral glucose tolerance | 11.6 | 10.2 | 15.3 | 15.0 | Neither biotin nor phytanic acid caused a significant decrease | improved oral glucose tolerance | decreased |  |  |
| NCCS [Cysteamin, cysteamine] | 447.42 |  |  |  |  |  |  |  |  |  |  |  |
| O=C(O[C@@H]1Cc2c(O)cc(O)cc2O[C@@H]1c1cc(O)c(O)c(O)c1)c1cc(O)c(O)c(O)c1 [EGCG, Epigallocatechin gallate] | 484.8 |  |  |  |  |  |  |  |  |  |  |  |
| CC(C)CCCC(C)CCCC(C)CCCC(C)CC(=O)O (stereo not shown) [Phytanic acid, 3,7,11,15-tetramethylhexadecanoic acid] |  |  |  | 9.7 | 12.5 | 14.6 | 15.2 | Neither biotin nor phytanic acid caused a significant decrease |  |  | enhances uptake of glucose | only minor effects |
